The record followed here is ChEMBL document CHEMBL1150047, “New sesquiterpene quinols from a Micronesian sponge, Aka sp” (J Nat Prod, 2003).

Where a name gives a salt, the structure may show the parent alone. Active and inactive are the calls of the source. No cut-off for these calls is given here.

The target of assay [1] is Cyclin-dependent kinase 4/cyclin D1 (Homo sapiens, UniProt P11802). The assay can be described thus: Inhibition of CDK4/Cyclin D1 complex formation.
Assay [2] addresses Cyclin-dependent kinase 4/cyclin D1 (Homo sapiens) (UniProt P11802+P24385). The assay can be described thus: Inhibition of CDK4/Cyclin D1 complex formation at 10 ug/mL. It is filed as protein-complex assay.

Sequence of Cyclin-dependent kinase 4/cyclin D1 (P11802 whole entry): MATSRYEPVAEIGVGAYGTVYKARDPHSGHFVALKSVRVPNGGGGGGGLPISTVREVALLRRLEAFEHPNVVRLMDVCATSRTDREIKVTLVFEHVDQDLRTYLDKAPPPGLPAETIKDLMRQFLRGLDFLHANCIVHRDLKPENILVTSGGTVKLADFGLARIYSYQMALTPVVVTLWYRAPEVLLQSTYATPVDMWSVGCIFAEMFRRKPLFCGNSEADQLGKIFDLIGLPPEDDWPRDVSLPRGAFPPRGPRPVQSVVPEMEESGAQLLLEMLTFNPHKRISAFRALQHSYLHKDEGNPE
Sequence of Cyclin-dependent kinase 4/cyclin D1 (P24385 whole entry, further chain): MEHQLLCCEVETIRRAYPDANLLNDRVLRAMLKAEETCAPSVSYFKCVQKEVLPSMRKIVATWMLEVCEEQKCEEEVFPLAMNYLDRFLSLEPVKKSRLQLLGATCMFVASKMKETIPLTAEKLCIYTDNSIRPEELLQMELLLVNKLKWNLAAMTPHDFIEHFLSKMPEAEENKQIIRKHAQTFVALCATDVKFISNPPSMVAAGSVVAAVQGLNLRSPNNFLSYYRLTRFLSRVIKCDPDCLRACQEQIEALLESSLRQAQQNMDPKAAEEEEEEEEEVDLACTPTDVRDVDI

By IC50 is commonly meant the point on the concentration scale where inhibition reaches its midpoint. A higher IC50 goes with weaker potency. Compound `CC1=CC[C@H]2C(C)(C)CCC[C@]2(C)[C@H]1Cc1cc(O)c(O)c(C=O)c1OS(=O)(=O)O` [SIPHONODICTYAL C] showed an IC50 in assay [1] of 19.5 µM. On the same count and under the same terms, in the case of `CC(CC[C@@H](C)[C@H]1CC[C@H]2[C@@H]3C[C@H](OS(=O)(=O)O)[C@H]4C[C@H](OS(=O)(=O)O)[C@@H](OS(=O)(=O)O)C[C@]4(C)[C@H]3CC[C@]12C)C(C)(C)C` (some centres undefined) [HALISTANOL SULFATE] it was 12.6 µM. In the case of `CC1(C)CCC[C@]2(C)[C@@H](Cc3c(O)ccc(O)c3C=O)[C@](C)(O)CC[C@@H]12`, in assay [2], the result was inactive. Turning to `COCc1cc(O)c(O)c2c1[C@@]1(C)CC[C@H]3C(C)(C)CCC[C@]3(C)[C@H]1C2`, in assay [2], the outcome was inactive.
